From PMC12380353, “MK-8527 is a novel inhibitor of HIV-1 reverse transcriptase translocation with potential for extended-duration dosing” (PLOS Biology, 2025)

How the values were obtained:
[1] = CellTiter-Glo (CTG) cytotoxicity in MT4-GFP cells; conditions: human
HIV-1 [2] = experiment: Multicycle antiviral assay in MT4-GFP cells; type: cell-based; conditions: 10% NHS
Method: Compounds were evaluated for their ability to prevent HIV-1 infection in MT4-GFP cells as described in Diamond, and colleagues. HIV-1 replication was monitored using the MT4-gag-GFP clone D3, and MT4 cells with a GFP reporter gene, the expression of which is dependent on the HIV-1 expressed proteins tat and rev. […] Proviral variants used for these studies were generated by site-directed mutagenesis in the WT R8 proviral plasmid. Virus was produced by transfection in 293T cells.
Briefly, MT4-GFP cells were cultured overnight with the appropriate HIV-1 variant at an approximate multiplicity of infection of 0.01. After approximately 19 h of infection, the cells were washed and resuspended in assay media containing 10% normal human serum (NHS) before being added to 384-well compound plates containing 10-point serial 3-fold dilutions of compound. Controls included no inhibitor (dimethyl sulfoxide [DMSO] only) and a combination of 3 antiviral agents, efavirenz, indinavir, and an integrase strand transfer inhibitor, L-002254051, at final concentrations of 4 µM each. The infected or treated cells were cultured at 37 °C, 5% CO2, and 90% humidity until evaluation of infection was conducted at approximately 48 and 72 h post-infection by counting the number of GFP cells in each well using an Acumen eX3 scanner (SPT Labtech; Melbourn, UK). The reproductive ratio, R, was calculated by dividing the number of infected cells at 72 h by the number at 48 h post-infection. The percentage inhibition caused by a test compound was calculated by the following formula:
inhibition = [1−(Rtest compound − Rpositive control)]/(RDMSO only − Rpositive control) × 100%\]
The dose–response curves of each test compound were plotted as percentage inhibition versus the test concentration.

HIV-1 [3] = experiment: Single-cycle antiviral assay in PBMCs; type: cell-based
Method: To evaluate the ability of inhibitors to prevent HIV-1 infection in primary cells, human PBMCs obtained from Biological Specialty Corporation (Colmar, PA, USA) were used to assess antiviral activity. The proviral variants used for these studies were generated by site-directed mutagenesis in a proviral vector derived from NL43 [52] that encodes GFP (pNLG1-P2A-GFP). Virus was produced by transfection in 293T cells.
PBMCs were activated with phytohemagglutinin (PHA) at 5 μg/mL in Roswell Park Memorial Institute (RPMI) 1640 medium containing 10% heat-inactivated fetal bovine serum (FBS) for 2–3 days. Compound plates were prepared by dispensing compounds dissolved in DMSO into 384-well poly-d-lysine-coated plates (0.2 μL per well) using an Echo acoustic dispenser (Labcyte; San Jose, CA, USA). Each compound was tested in a 10-point serial 3-fold dilution (typical final concentrations: 5,000 to 0.1 nM). Controls included no inhibitor (DMSO only) and a combination of 3 antiviral agents, efavirenz, indinavir, and the integrase strand transfer inhibitor, L-002254051, at final concentrations of 4 μM each. PHA-activated human PBMCs were washed and resuspended in RPMI 1640 containing 10% NHS and 30 units per mL of interleukin-2 (IL-2) at 6 × 10^5 cells per mL. PBMCs were added to the compound plates and cultured for 24 h at 37 °C, 5% CO2, and 90% humidity. The appropriate HIV-1 variant was added to the PBMCs and cultured at 37 °C, 5% CO2, and 90% humidity for an additional 24 h.
HIV-1–infected cells were quantified by counting the number of GFP cells in each well using an Acumen eX3 scanner (SPT Labtech; Melbourn, UK).

MT4-GFP cells = experiment: CellTiter-Glo (CTG) cytotoxicity in MT4-GFP cells; conditions: read-out: MT4-GFP CTG CC50, CellTiter-Glo
[4] = Human immunodeficiency virus 1, WT HIV-1, multicycle assay
[5] = Human immunodeficiency virus 1, PBMC, read-out: PBMC IC50, HIV-1, single-cycle assay, human PBMCs, 10% NHS

Molecule | CC50 [1] | IC50 (HIV-1 [2]; [4]) | IC50 (HIV-1 [3]; [5]) | MT4-GFP IC50 (HIV-1 [2]; WT HIV-1, multicycle assay) | PBMC IC50 (HIV-1 [3]; HIV-1, single-cycle assay, human PBMCs, 10% NHS) | CC50 (MT4-GFP cells) | IC50 (HIV-1 [2]; WT HIV-1, multicycle assay) | IC50 (HIV-1 [3]; HIV-1, single-cycle assay, human PBMCs, 10% NHS, read-out: PBMC IC50)
C#C[C@]1(CO)O[C@@H](n2cnc3c(N)nc(Cl)nc32)C[C@@H]1O [Compound 1, (2R,3S,5R)-5-(6-amino-2-chloro-9H-purin-9-yl)-2-ethynyl-2-(hydroxymethyl)-tetrahydrofuran-3-ol] | > 42000 nM | 2.7 nM | 0.4 nM | – | – | – | – | –
C#C[C@]1(CO)O[C@@H](n2cnc3c(N)nc(C)nc32)C[C@@H]1O [Compound 2, (2R,3S,5R)-5-(6-amino-2-methyl-9H-purin-9-yl)-2-ethynyl-2-(hydroxymethyl)-tetrahydrofuran-3-ol] | > 42000 nM | 109 nM | 35.9 nM | – | – | – | – | –
C#C[C@]1(CO)O[C@@H](n2cnc3c(N)nc(C(F)(F)F)nc32)C[C@@H]1O [Compound 3, (2R,3S,5R)-5-(6-amino-2-(trifluoromethyl)-9H-purin-9-yl)-2-ethynyl-2-(hydroxymethyl)tetrahydrofuran-3-ol] | > 42000 nM | > 42000 nM | > 11900 nM | – | – | – | – | –
C#C[C@]1(CO)O[C@@H](n2cnc3c(NC4CC4)nc(F)nc32)C[C@@H]1O [Compound 4, (2R,3S,5R)-5-(6-(cyclopropylamino)-2-fluoro-9H-purin-9-yl)-2-ethynyl-2-(hydroxymethyl)tetrahydrofuran-3-ol] | > 42000 nM | 4300 nM | 3290 nM | – | – | – | – | –
C#C[C@]1(CO)O[C@@H](n2ccc3c(N)ncnc32)C[C@@H]1O [Compound 5, (2R,3S,5R)-5-(4-amino-7H-pyrrolo[2,3-d]pyrimidin-7-yl)-2-ethynyl-2-(hydroxymethyl)tetrahydrofuran-3-ol] | 30800 nM | 1.9 nM | 0.9 nM | – | – | – | – | –
C#C[C@]1(CO)O[C@@H](n2c(C)cc3c(N)ncnc32)C[C@@H]1O [Compound 6, (2R,3S,5R)-5-(4-amino-6-methyl-7H-pyrrolo[2,3-d]pyrimidin-7-yl)-2-ethynyl-2-(hydroxymethyl)tetrahydrofuran-3-ol] | > 42000 nM | > 2000 nM | > 2000 nM | – | – | – | – | –
C#C[C@]1(CO)O[C@@H](n2cc(C)c3c(N)ncnc32)C[C@@H]1O [Compound 7, (2R,3S,5R)-5-(4-amino-5-methyl-7H-pyrrolo[2,3-d]pyrimidin-7-yl)-2-ethynyl-2-(hydroxymethyl)tetrahydrofuran-3-ol] | > 42000 nM | 1680 nM | 682 nM | – | – | – | – | –
C#C[C@]1(CO)O[C@@H](n2cc(-c3ccn[nH]3)c3c(N)ncnc32)C[C@@H]1O [Compound 10, (2R,3S,5R)-5-(4-amino-5-(1H-pyrazol-5-yl)-7H-pyrrolo[2,3-d]pyrimidin-7-yl)-2-ethynyl-2-(hydroxymethyl)tetrahydrofuran-3-ol] | > 42000 nM | 1590 nM | 907 nM | – | – | – | – | –
C#C[C@]1(CO)O[C@@H](n2ccc3c(N)nc(F)nc32)C[C@@H]1O [Compound 11, (2R,3S,5R)-5-(4-amino-2-fluoro-7H-pyrrolo[2,3-d]pyrimidin-7-yl)-2-ethynyl-2-(hydroxymethyl)tetrahydrofuran-3-ol] | > 42000 nM | 16.8 nM | 10.5 nM | – | – | – | – | –
C#C[C@]1(CO)O[C@@H](n2cc(F)c3c(N)nc(Cl)nc32)C[C@@H]1O [Compound 13, (2R,3S,5R)-5-(4-amino-2-chloro-5-fluoro-7H-pyrrolo[2,3-d]pyrimidin-7-yl)-2-ethynyl-2-(hydroxymethyl)tetrahydrofuran-3-ol] | > 42000 nM | 2.4 nM | 0.2 nM | single-digit nanomolar potency | subnanomolar potency | – | – | –
C#C[C@]1(CO)O[C@@H](n2ccc3c(N)nc(N)nc32)C[C@@H]1O [Compound 14, (2R,3S,5R)-5-(2,4-diamino-7H-pyrrolo[2,3-d]pyrimidin-7-yl)-2-ethynyl-2-(hydroxymethyl)tetrahydrofuran-3-ol] | > 42000 nM | 277 nM | 257 nM | – | – | – | – | –
C#C[C@]1(CO)O[C@@H](n2nnc3c(N)ncnc32)C[C@@H]1O [Compound 15, (2R,3S,5R)-5-(7-amino-3H-[1,2,3]triazolo[4,5-d]pyrimidin-3-yl)-2-ethynyl-2-(hydroxymethyl)tetrahydrofuran-3-ol] | > 42000 nM | 7590 nM | 7570 nM | completely inactive | – | – | – | –
C#C[C@]1(CO)O[C@@H](c2ccc3c(N)ncnn23)C[C@@H]1O [Compound 16, (2R,3S,5R)-5-(4-aminopyrrolo[2,1-f][1,2,4]triazin-7-yl)-2-ethynyl-2-(hydroxymethyl)tetrahydrofuran-3-ol] | 22300 nM | 21.6 nM | 19.2 nM | – | – | – | – | –
C#CC1(CO)CC(n2cnc3c(N)nc(F)nc32)CC1O (stereo not drawn) [Compound 17, 4-(6-amino-2-fluoro-9H-purin-9-yl)-2-ethynyl-2-(hydroxy-methyl)cyclopentan-1-ol] | > 42000 nM | 5020 nM | 383 nM | – | – | – | – | –
C#CC1(CO)CC(n2cnc3c(N)nc(Cl)nc32)CC1O (stereo not drawn) [Compound 18, 4-(6-amino-2-chloro-9H-purin-9-yl)-2-ethynyl-2-(hydroxy-methyl)-cyclopentan-1-ol] | > 42000 nM | 22700 nM | 982 nM | – | – | – | – | –
C#C[C@]1(CO)C[C@@H](n2ccc3c(N)nc(Cl)nc32)C[C@@H]1O [Compound 19, (1S,2S,4R)-4-(4-amino-2-chloro-7H-pyrrolo[2,3-d]pyrimidin-7-yl)-2-ethynyl-2-(hydroxymethyl)cyclopentan-1-ol] | > 42000 nM | 22600 nM | 1160 nM | – | – | – | – | –
C#C[C@]1(CO)C[C@@H](n2cnc3c(=O)[nH]c(N)nc32)C[C@@H]1O [Compound 20, 2-amino-9-((1R,3S,4S)-3-ethynyl-4-hydroxy-3-(hydroxymethyl)-cyclopentyl)-1,9-dihydro-6H-purin-6-one] | > 42000 nM | 103 nM | 20.4 nM | – | – | – | – | –
(2R,3S,5R)-5-(4-amino-5-fluoro-7H-pyrrolo[2,3-d]pyrimidin-7-yl)-2-ethynyl-2-(hydroxymethyl)tetrahydrofuran-3-ol [Compound 9] | – | – | – | – | – | > 42000 nM | 37200 nM | 3410 nM
